Publication PMC7782793, “Hydroxamic acid-modified peptide microarrays for profiling isozyme-selective interactions and inhibition of histone deacetylases” (Nature Communications, 2021)
Where “and” joins values, the source holds several entries; their conditions need not be identical. Identical values can stand only once. Marks after values point to notes of the source that are not given here. Non-standard residues stand in square brackets, D forms with d. Residues, ends and D or L forms follow the SMILES beside them. *: point of attachment. Asu = N[C@@H](CCCCCC(=O)O)C(=O)O; NHOH = ON*

Legend:
HDAC3/NCoR2 [1] = target: T1, HDAC3/NCoR2 (Homo sapiens, UniProt O15379); test: HDAC inhibition assay (fluorogenic, Ac-Leu-Gly-Lys(Ac)-AMC); format: biochemical; details: for HDAC3 dose-response data (relative enzyme activity), Fig. 6 + S. Fig. 10: duplicate columns
T1 construct: HDAC3/NCoR2 (full length, C-terminal His tag, NCoR2 N-terminal GST tag); purchased BPS Bioscience 50003

HDAC3/NCoR2 [2] = target: T1, HDAC3/NCoR2; test: Recombinant HDAC µSPOT microarray binding assay
HDAC6 = target: T2, HDAC6 (Homo sapiens, UniProt Q9UBN7); test: HDAC inhibition assay (fluorogenic, Ac-Leu-Gly-Lys(Ac)-AMC); format: biochemical; details: HDAC6, replicates
T2 construct: HDAC6 (full length, BPS Bioscience, cat. #: 50056); purchased BPS Bioscience 50056
T2 sequence (Q9UBN7 1-1215): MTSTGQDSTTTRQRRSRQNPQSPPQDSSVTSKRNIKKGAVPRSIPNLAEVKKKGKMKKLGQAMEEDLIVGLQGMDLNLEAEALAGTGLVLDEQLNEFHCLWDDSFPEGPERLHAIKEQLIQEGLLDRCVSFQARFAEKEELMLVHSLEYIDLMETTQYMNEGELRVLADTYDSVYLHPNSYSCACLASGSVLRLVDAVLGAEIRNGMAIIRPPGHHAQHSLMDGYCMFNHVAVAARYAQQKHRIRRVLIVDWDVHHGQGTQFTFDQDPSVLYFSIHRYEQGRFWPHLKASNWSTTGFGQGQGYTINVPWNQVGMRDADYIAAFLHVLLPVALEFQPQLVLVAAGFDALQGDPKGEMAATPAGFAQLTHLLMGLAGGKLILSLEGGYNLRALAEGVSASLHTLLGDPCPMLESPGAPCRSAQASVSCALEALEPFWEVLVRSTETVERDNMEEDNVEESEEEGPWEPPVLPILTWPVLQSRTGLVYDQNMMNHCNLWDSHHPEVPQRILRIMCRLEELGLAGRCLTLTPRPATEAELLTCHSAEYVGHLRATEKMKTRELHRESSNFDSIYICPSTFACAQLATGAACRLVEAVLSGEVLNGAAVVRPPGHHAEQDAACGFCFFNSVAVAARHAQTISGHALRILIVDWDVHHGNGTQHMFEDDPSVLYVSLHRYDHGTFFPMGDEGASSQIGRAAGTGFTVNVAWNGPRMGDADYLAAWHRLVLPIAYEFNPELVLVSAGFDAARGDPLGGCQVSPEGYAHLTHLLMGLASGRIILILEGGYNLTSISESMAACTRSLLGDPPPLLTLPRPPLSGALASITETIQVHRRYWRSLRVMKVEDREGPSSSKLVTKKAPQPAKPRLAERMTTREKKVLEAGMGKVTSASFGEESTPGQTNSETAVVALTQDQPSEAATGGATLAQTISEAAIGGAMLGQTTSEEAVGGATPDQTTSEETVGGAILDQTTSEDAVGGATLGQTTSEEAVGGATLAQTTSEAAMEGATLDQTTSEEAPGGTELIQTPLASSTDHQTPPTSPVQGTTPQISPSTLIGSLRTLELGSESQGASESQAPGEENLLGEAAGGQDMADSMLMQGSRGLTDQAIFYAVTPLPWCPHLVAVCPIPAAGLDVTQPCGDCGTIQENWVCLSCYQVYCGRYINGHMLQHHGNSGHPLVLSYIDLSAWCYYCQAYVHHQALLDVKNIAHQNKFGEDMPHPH

HDAC1 [3] = target: T3, HDAC1 (Homo sapiens, UniProt Q13547); test: as above; format: biochemical; details: for HDAC1 dose-response data (relative enzyme activity), Fig. 6 + S. Fig. 10: duplicate columns
T3 construct: HDAC1 (full length, C-terminal His tag, C-terminal FLAG tag, BPS Bioscience, cat. #: 50051); FLAG (C); purchased BPS Bioscience 50051

HDAC1 [4] = target: T3, HDAC1; test: Recombinant HDAC µSPOT microarray binding assay
HDAC8 = target: T4, HDAC8 (Homo sapiens, UniProt Q9BY41); test: HDAC inhibition assay (fluorogenic, Ac-Leu-Gly-Lys(Tfa)-AMC); format: biochemical; details: for HDAC8 dose-response data (relative enzyme activity, replicate values), Fig. 6 + S. Fig. 10: two replicate columns per inhibitor; for HDAC8 dose-response data (relative enzyme activity), Fig. 6 + S. Fig. 10: duplicate columns
T4 construct: HDAC8 (full length, C-terminal His tag, BPS Bioscience, cat. #: 50008); purchased BPS Bioscience 50008
T4 sequence (Q9BY41 1-377): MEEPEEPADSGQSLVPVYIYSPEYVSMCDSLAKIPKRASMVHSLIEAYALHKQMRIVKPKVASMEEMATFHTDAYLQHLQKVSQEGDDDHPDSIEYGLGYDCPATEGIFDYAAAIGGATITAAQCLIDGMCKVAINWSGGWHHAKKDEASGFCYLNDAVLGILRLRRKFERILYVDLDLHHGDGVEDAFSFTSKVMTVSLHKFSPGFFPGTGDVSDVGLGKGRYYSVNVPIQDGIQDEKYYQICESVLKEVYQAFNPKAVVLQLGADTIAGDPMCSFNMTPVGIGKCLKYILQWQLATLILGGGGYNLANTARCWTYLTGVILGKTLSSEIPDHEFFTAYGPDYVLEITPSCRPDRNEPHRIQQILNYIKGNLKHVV

HDAC2 = target: T5, HDAC2 (Homo sapiens, UniProt Q92769); test: HDAC inhibition assay (fluorogenic, Ac-Leu-Gly-Lys(Ac)-AMC); format: biochemical; details: for HDAC2 dose-response data (relative enzyme activity), Fig. 6 + S. Fig. 10: duplicate columns
T5 construct: HDAC2 (full length, C-terminal His tag, BPS Bioscience, cat. #: 50002); purchased BPS Bioscience 50002

[5] = log[inhibitor(M)] -10,5850266520292*, whole line marked with asterisks

T1 sequence (O15379 whole entry): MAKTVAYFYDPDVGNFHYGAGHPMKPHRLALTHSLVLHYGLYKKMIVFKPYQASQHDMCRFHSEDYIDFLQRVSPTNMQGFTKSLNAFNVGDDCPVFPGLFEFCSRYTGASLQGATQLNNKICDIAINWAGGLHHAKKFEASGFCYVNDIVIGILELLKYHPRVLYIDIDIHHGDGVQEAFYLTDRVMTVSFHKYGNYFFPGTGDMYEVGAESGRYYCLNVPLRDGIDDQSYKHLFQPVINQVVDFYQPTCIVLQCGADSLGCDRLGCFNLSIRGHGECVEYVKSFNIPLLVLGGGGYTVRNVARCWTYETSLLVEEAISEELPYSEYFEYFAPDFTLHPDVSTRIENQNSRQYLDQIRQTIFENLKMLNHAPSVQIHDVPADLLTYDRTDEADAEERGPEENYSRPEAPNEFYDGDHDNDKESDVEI
T1 sequence (Q9Y618 389-480 partner limits assumed): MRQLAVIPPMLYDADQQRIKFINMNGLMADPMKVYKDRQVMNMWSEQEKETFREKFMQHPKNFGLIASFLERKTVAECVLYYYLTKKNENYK
T3 sequence (Q13547 whole entry): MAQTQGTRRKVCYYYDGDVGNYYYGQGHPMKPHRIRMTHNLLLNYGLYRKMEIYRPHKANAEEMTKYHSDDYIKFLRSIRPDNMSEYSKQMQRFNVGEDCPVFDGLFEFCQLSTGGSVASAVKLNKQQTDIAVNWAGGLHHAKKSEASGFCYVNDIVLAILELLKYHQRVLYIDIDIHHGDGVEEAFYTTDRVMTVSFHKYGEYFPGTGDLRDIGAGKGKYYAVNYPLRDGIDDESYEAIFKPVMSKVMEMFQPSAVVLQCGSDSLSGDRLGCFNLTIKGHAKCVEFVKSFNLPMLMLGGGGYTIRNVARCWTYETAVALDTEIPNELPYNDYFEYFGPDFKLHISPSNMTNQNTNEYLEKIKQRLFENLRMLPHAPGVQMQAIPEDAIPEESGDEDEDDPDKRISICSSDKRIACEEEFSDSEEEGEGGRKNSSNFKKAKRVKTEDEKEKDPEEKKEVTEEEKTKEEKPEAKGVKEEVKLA
T5 sequence (Q92769 whole entry): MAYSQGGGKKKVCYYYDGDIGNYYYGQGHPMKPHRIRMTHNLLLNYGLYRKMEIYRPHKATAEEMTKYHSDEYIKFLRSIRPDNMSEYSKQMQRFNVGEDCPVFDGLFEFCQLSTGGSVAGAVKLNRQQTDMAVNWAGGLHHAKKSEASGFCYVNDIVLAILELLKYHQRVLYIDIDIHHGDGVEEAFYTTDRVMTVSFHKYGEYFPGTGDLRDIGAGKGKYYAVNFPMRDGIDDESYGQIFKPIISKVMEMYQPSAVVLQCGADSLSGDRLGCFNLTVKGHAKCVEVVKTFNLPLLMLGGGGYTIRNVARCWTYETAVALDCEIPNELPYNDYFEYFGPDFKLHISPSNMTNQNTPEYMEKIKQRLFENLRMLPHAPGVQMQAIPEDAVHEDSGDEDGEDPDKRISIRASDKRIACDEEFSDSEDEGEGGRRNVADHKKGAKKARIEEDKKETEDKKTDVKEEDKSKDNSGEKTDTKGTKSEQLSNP

## CC(=O)N[C@@H](C)C(=O)N[C@@H](CCCNC(=N)N)C(=O)N[C@@H](CCCCN)C(=O)N[C@@H](CO)C(=O)N[C@H](C(=O)NCC(=O)NCC(=O)N[C@@H](CCCCN)C(=O)N[C@@H](C)C(=O)N1CCC[C@H]1C(=O)N[C@@H](CCCNC(=N)N)C(=O)N[C@@H](CCCCCC(=O)NO)C(=O)N[C@@H](CCC(N)=O)C(=O)N[C@@H](CC(C)C)C(=O)N[C@@H](C)C(=O)N[C@H](C(=O)N[C@@H](Cc1c[nH]c2ccccc12)C(N)=O)[C@@H](C)O)[C@@H](C)O [13a] (Ac-ARKSTGGKAPR[Asu](NHOH)QLATW-NH2)
HDAC3/NCoR2 [1]
  Ki: 2.14 ± 0.02 nM
HDAC3/NCoR2 [1]; log[inhibitor(M)] -4.30103
  HDAC3 dose-response data (relative enzyme activity), Fig. 6 + S. Fig. 10: 0.9488 and 1.386
HDAC3/NCoR2 [1]; log[inhibitor(M)] -5
  HDAC3 dose-response data (relative enzyme activity), Fig. 6 + S. Fig. 10: 3.154 and 2.6883
HDAC3/NCoR2 [1]; log[inhibitor(M)] -5.69897
  HDAC3 dose-response data (relative enzyme activity), Fig. 6 + S. Fig. 10: 8.657 and 8.271
HDAC3/NCoR2 [1]; log[inhibitor(M)] -6.39794
  HDAC3 dose-response data (relative enzyme activity), Fig. 6 + S. Fig. 10: 15.6479 and 15.4413
HDAC3/NCoR2 [1]; log[inhibitor(M)] -7.09691
  HDAC3 dose-response data (relative enzyme activity), Fig. 6 + S. Fig. 10: 23.7196 and 23.3659
HDAC3/NCoR2 [1]; log[inhibitor(M)] -7.79588
  HDAC3 dose-response data (relative enzyme activity), Fig. 6 + S. Fig. 10: 41.0048 and 43.3286
HDAC3/NCoR2 [1]; log[inhibitor(M)] -8.49485
  HDAC3 dose-response data (relative enzyme activity), Fig. 6 + S. Fig. 10: 70.4254 and 74.0708
HDAC3/NCoR2 [1]; log[inhibitor(M)] -9.19382
  HDAC3 dose-response data (relative enzyme activity), Fig. 6 + S. Fig. 10: 90.1455 and 92.6434
HDAC3/NCoR2 [1]; log[inhibitor(M)] -9.89279
  HDAC3 dose-response data (relative enzyme activity), Fig. 6 + S. Fig. 10: 95.7935 and 97.884
HDAC3/NCoR2 [1]; [5]
  HDAC3 dose-response data (relative enzyme activity), Fig. 6 + S. Fig. 10: 98,4914638* and 97,1472426*
HDAC3/NCoR2 [1]; resynthesized peptides, from Ki
  selectivity for HDAC3 vs. HDACs 1 and 2: > 8 fold
HDAC3/NCoR2 [2]
  EC50: 4.17 nM
HDAC6; log[inhibitor(M)] -4.30103
  residual enzymatic activity relative to control wells: -1.734 and 1.049
HDAC6; log[inhibitor(M)] -5
  residual enzymatic activity relative to control wells: -1.228 and 1.2154
HDAC6; log[inhibitor(M)] -5.69897
  residual enzymatic activity relative to control wells: 0.01806 and 2.993
HDAC6; log[inhibitor(M)] -6.39794
  residual enzymatic activity relative to control wells: 4.479 and 8.186
HDAC6; log[inhibitor(M)] -7.09691
  residual enzymatic activity relative to control wells: 18.6761 and 22.7019
HDAC6; log[inhibitor(M)] -7.79588
  residual enzymatic activity relative to control wells: 46.5457 and 51.1177
HDAC6; log[inhibitor(M)] -8.49485
  residual enzymatic activity relative to control wells: 65.89 and 75.8407
HDAC6; log[inhibitor(M)] -9.19382
  residual enzymatic activity relative to control wells: 72.6813 and 83.6344
HDAC6; log[inhibitor(M)] -9.89279
  residual enzymatic activity relative to control wells: 83.1572 and 99.4226
HDAC6; log[inhibitor(M)] -10.585
  residual enzymatic activity relative to control wells: 85.7762 and 94.8721
HDAC1 [3]
  Ki: 17.9 ± 0.4 nM
HDAC1 [3]; log[inhibitor(M)] -5
  HDAC1 dose-response data (relative enzyme activity), Fig. 6 + S. Fig. 10: 5.502 and 6.317
HDAC1 [3]; log[inhibitor(M)] -5.69897
  HDAC1 dose-response data (relative enzyme activity), Fig. 6 + S. Fig. 10: 16.4811 and 18.8712
HDAC1 [3]; log[inhibitor(M)] -6.39794
  HDAC1 dose-response data (relative enzyme activity), Fig. 6 + S. Fig. 10: 32.4053 and 35.9654
HDAC1 [3]; log[inhibitor(M)] -7.09691
  HDAC1 dose-response data (relative enzyme activity), Fig. 6 + S. Fig. 10: 44.2666 and 47.9606
HDAC1 [3]; log[inhibitor(M)] -7.79588
  HDAC1 dose-response data (relative enzyme activity), Fig. 6 + S. Fig. 10: 60.5299 and 62.3252
HDAC1 [3]; log[inhibitor(M)] -8.49485
  HDAC1 dose-response data (relative enzyme activity), Fig. 6 + S. Fig. 10: 80.9321 and 81.9464
HDAC1 [3]; log[inhibitor(M)] -9.19382
  HDAC1 dose-response data (relative enzyme activity), Fig. 6 + S. Fig. 10: 95.5469 and 95.3965
HDAC1 [3]; log[inhibitor(M)] -9.89279
  HDAC1 dose-response data (relative enzyme activity), Fig. 6 + S. Fig. 10: 98.1308 and 82.1941
HDAC1 [3]; [5]
  HDAC1 dose-response data (relative enzyme activity), Fig. 6 + S. Fig. 10: 98,3704548* and 94,2568861*
HDAC1 [4]
  EC50: > 25.1 nM
HDAC8
  Ki: 5.1 ± 0.03 nM
HDAC8; Inhibitor conc [M] -8.49485 (log)
  HDAC8 dose-response data (relative enzyme activity, replicate values), Fig. 6 + S. Fig. 10: 71.9184 and 69.3811
HDAC8; Inhibitor conc [M] -9.19382 (log)
  HDAC8 dose-response data (relative enzyme activity, replicate values), Fig. 6 + S. Fig. 10: 90.9342 and 89.4061
HDAC8; Inhibitor conc [M] given as -7.09691 (log)
  HDAC8 dose-response data (relative enzyme activity, replicate values), Fig. 6 + S. Fig. 10: 21.0963 and 19.8616
HDAC8; Inhibitor conc [M] given as -7.79588 (log)
  HDAC8 dose-response data (relative enzyme activity, replicate values), Fig. 6 + S. Fig. 10: 40.3806 and 38.3863
HDAC8; Inhibitor conc [M] given as -9.89279 (log)
  HDAC8 dose-response data (relative enzyme activity, replicate values), Fig. 6 + S. Fig. 10: 99.1075 and 97.7
HDAC8; Inhibitor conc [M] given as -10.585 (log)
  HDAC8 dose-response data (relative enzyme activity, replicate values), Fig. 6 + S. Fig. 10: 102.311 and 100.47
HDAC8; Inhibitor conc [M] -4.30103
  HDAC8 dose-response data (relative enzyme activity), Fig. 6 + S. Fig. 10: 1.362 and 1.423
HDAC8; Inhibitor conc [M] -5
  HDAC8 dose-response data (relative enzyme activity), Fig. 6 + S. Fig. 10: 4.393 and 4.0005
HDAC8; Inhibitor conc [M] -5.69897
  HDAC8 dose-response data (relative enzyme activity), Fig. 6 + S. Fig. 10: 9.7232 and 9.03
HDAC8; Inhibitor conc [M] -6.39794
  HDAC8 dose-response data (relative enzyme activity), Fig. 6 + S. Fig. 10: 13.9289 and 13.185
HDAC2; log[inhibitor(M)] -5
  HDAC2 dose-response data (relative enzyme activity), Fig. 6 + S. Fig. 10: 9.3053 and 9.139
HDAC2; log[inhibitor(M)] -5.69897
  HDAC2 dose-response data (relative enzyme activity), Fig. 6 + S. Fig. 10: 27.8438 and 26.8455
HDAC2; log[inhibitor(M)] -7.79588
  HDAC2 dose-response data (relative enzyme activity), Fig. 6 + S. Fig. 10: 88.6532 and 82.3131
HDAC2; [5]
  HDAC2 dose-response data (relative enzyme activity), Fig. 6 + S. Fig. 10: 104,855804* and 98,2337504*
HDAC2; resynthesized peptide in solution, Cheng-Prusoff, n = 2
  Ki: 60 ± 1 nM
